# Assay results published in US20210246128A1, “BICYCLE TOPOISOMERASE I INHIBITING COMPOUNDS, PROCESS FOR PREPARATION AND USE THEREOF” (Council of Scientific & Industrial Research, priority 2018, published 2021).
# Where two headings read alike, the source gives them in different places.
# Legend:
# [1] = Solubility assay (pH 7.4 pION buffer, UV); type: physicochemical; conditions: pH 7.4 buffer, 18 hours incubation
# Experimental: 5 μL of 20 mM DMSO stock from the stock plate was added to the reaction deep well plate containing 495 μL of pH 7.4 pION buffer (including DMSO control) respectively and the samples were mixed and incubated for 18 hours. The plate was sealed well during the incubation process. The DMSO content in the sample was <1.0%. The concentration in deep well plates was 200 μM. 4 μL of 20 mM stock (including DMSO control) was added to 996 μL of acetonitrile to prepare the working stock plate. 75 μL of working stock was added to 75 μL of blank buffer and read on spectrophotometer as reference plate at 240 nm. At the end of the incubation period, 100 μL of sample from storage plate was vacuum filtered using a filter plate. This step wets the filters and the filtrate was discarded. Another 200 μL of the sample from deep well plate was vacuum filtered in to a new filter collection plate. 75 μL of the filtrate from the filter collection plate was transferred to a UV sample plate. 75 μL of acetonitrile was added to this UV plate. The solution was mixed and the spectrum was read using the UV spectrophotometer at 240 nm. Plates were read on spectramax using SoftMax Pro software version 5.3.
# Caco-2 cell monolayer = conditions: cited from earlier work
# TDP1−/− cells = test: Cytotoxicity assay, TDP1−/−; conditions: read-out: IC50 cytotoxicity TDP1−/−
# Experimental: (§1) The percent inhibition of viability for each concentration of compound was calculated with respect to the control and IC50 (μM) values were estimated. Each point corresponds to the mean±S.D of at least three experiments in duplicates. Error bars represent SD (n=3).
# [2] = tested on: noncancerous human embryonic kidney (HEK293) cells; test: Cytotoxicity assay, HEK293; conditions: read-out: IC50 cytotoxicity HEK293; HEK293 (noncancerous)
# Plasma stability assay = type: in vitro ADME; conditions: pH 7.4, 37° C., 1 μM
# Experimental: The stock solution of 10 mM of test compound in DMSO was prepared and stored at 4° C. 25 μM stock of test compound was prepared in acetonitrile: water by diluting from 10 mM stock (i.e. 2.5 μL of 10 mM stock solution was added to 997.5 μL of acetonitrile: water (50:50). The frozen plasma was thawed at room temperature and centrifuged at 1400×RCF (relative centrifugal force) 4° C., for 15 minutes. Approximately 90% of the clear supernatant fraction was transferred to a separate tube and was used for the assay.
# For 0 min samples, plasma was heat inactivated at 56° C. for 45 min. To 72 μL of heat inactivated plasma, 3 μL of 25 μM test compound was added. A 25 μL aliquot of the mixture was taken and crashed with 200 μL of acetonitrile containing internal standard and further processed along with other time points. For other time point samples, final working stock of 1 μM was prepared by diluting in plasma (i.e. 8 μL of 25 μM acetonitrile:water stock was added to 192 μL of plasma). 200 μL of plasma containing the test compound was incubated for 2 hrs at 37° C. in shaker water bath with gentle shaking. 25 μL aliquot of sample at 0, 15, 30, 60 and 120 min was precipitated immediately with 200 μL of acetonitrile containing internal standard and centrifuged at 4000×RCF, 4° C. for 20 minutes. 150 μL of supernatant was diluted with 150 μL of water and analyzed on LC-MS/MS.
# MCF7 cells = test: γH2AX assay (immunofluorescence confocal microscopy); type: cell-based, human; conditions: after washing out from media
# Experimental: Quantification of comparative ability of CPT and 18 to form DSBs was quantified after 3 hours and 5 hours by measuring γH2AX intensity per nucleus after treatment and after the removal of 18 or CPT was obtained from immunofluorescence confocal microscopy. […] But CPT-induced γH2AX have a short half-life. […] (T. Furuta. J. Biol. Chem. 2003, 278, 20303-20312).
# TDP1+/+ MEFs = test: Cytotoxicity assay, TDP1+/+ MEFs; type: cell-based
# Experimental: as §1
# calf thymus (CT) DNA = test: Ethidium bromide (EtBr) displacement assay; type: binding; conditions: 1 μM EtBr, 5 nM CT DNA, 0-200 μM compound
# [3] = Cytotoxicity assay, HEK293; conditions: human
# [4] = Caco-2 permeability (21 day culture of Caco-2 cell monolayer); type: in vitro ADME; conditions: human; for recovery at 120 min, 10 μM: Caco-2, pH 7.4, Caco-2
# Experimental: 5 mL of 100 mM sodium pyruvate, 5 mL of 10× non-essential amino acids, 5 mL of penstrep were added to 100 mL of heat inactivated foetal bovine serum to 385 mL of DMEM aseptically and mixed thoroughly. One vial of Hank's balanced salt (Sigma-H1387) was dissolved in 900 mL of milli Q water; adjusted the pH to 7.4 and made up the volume to 1000 mL with the same. The solution was filter sterilized and stored at 4° C. Stock solution of test compound (10 mM) was prepared in DMSO. 10 mM stock was diluted with HBSS Buffer to a final concentration of 10 μM.
# 250 μL of DMEM was added to the basal compartment of 96 well multi-screen Caco-2 plate and seeded 12000 cells/well (0.16×10^6 cells/ml) in all the apical wells required and one well with only media as blank without cells, placed the Caco-2 plate in CO2 incubator at 37° C. for proliferation of cells.
# On the day of assay, medium was removed and washed twice with HBSS Buffer and incubated with HBSS buffer for 30 min in an incubator and wells with TEER values >230 ohm·cm^2 were selected for the incubation. 75 μL of test compound was added to apical wells and 250 μL of HBSS buffer with 2% BSA was added to basal wells. 25 μL of basal samples was collected at 120 min and processed as stated below.
# 250 μL of test compound was added to basal wells and 75 μL of HBSS buffer with 2% BSA was added to apical wells. 25 μL of apical samples was collected at 120 min and processed as stated below.
# Single point calibration curve in HBSS buffer with 2% BSA was used. Donor samples were diluted 1:1 with HBSS containing 2% BSA and receiver samples were diluted with 1.1 HBSS buffer and precipitated with 200 μL of acetonitrile containing internal standard and vortexed for 5 min @ 1000 rpm, centrifuged at 4000 rpm for 10 min. Finally 100 μL of supernatant was diluted with 200 μL of water and submitted for LC-MS/MS analysis.
# [5] = tested on: human colon carcinoma cell lines (HCT116); test: Cytotoxicity assay, HCT116; conditions: HCT-116, read-out: IC50 cytotoxicity HCT116
# [6] = Lipophilicity assay (octanol/buffer Log D); conditions: octanol / sodium phosphate buffer pH 7.4
# [7] = tested on: human ovarian adenocarcinoma cell lines (NIH:OVCAR-3); test: Cytotoxicity assay, NIH:OVCAR-3; conditions: OVCAR-3, read-out: IC50 cytotoxicity NIH:OVCAR-3
Compound,Avg. Solubility (μg/mL) at pH 7.4 [1],Papp Apical to Basal (Caco-2 cell monolayer),Papp Basal to Apical (Caco-2 cell monolayer),IC50 (TDP1−/− cells; TDP1−/−),IC50 [2],Mean % remaining at 2 hrs in human Plasma (Plasma stability assay),persistence of γH2AX foci / DSBs after removal of drug (MCF7 cells),IC50 (TDP1+/+ MEFs),IC50 (TDP1−/− cells),displacement of bound EtBr (DNA intercalation) (calf thymus (CT) DNA),IC50 [3],"recovery at 120 min, 10 μM ([4]; read-out: A to B % Recovery)","recovery at 120 min, 10 μM ([4]; read-out: B to A % Recovery)","Papp A→B at 120 min, 10 μM ([4]; pH 7.4, Caco-2, 10 μM, 120 min, read-out: Papp Apical to Basal)","Papp B→A at 120 min, 10 μM ([4]; pH 7.4, Caco-2, 10 μM, 120 min, read-out: Papp Basal to Apical)",IC50 [5],Log D @ pH 7.40 Mean [6],IC50 [7]
"CC[C@@]1(O)C(=O)OCc2c1cc1n(c2=O)Cc2cc3ccccc3nc2-1 [Camptothecin, reference compound]",2.5 μg/mL,10.5 10^−6 cm/sec,35.8 10^−6 cm/sec,1570 ± 210 nM,8750 ± 630 nM,15.70%,faster disappearance of γH2AX foci,2800 ± 470 nM,,,,,,,,,,
"COc1ccc(-c2ccc3ncc(-c4nnco4)c(NCCCn4ccnc4)c3c2)cc1 [Compound 18, N-(3-(1H-imidazol-1-yl)propyl)-6-(4-methoxyphenyl)-3-(1,3,4-oxadiazol-2-yl)quinolin-4-amine]",,,,,,93.34%,persistent and less reversible DNA double-strand breaks (DSBs),,1020 nM,no displacement of fluorophore even at high concentration (200 μM),8340 nM,33.2%,44.2%,7.42 ×10⁻⁶ cm/s,11.6 ×10⁻⁶ cm/s,2340 nM,2.48,2350 nM
